Reference: the NIST ThermoML archive (doi:10.1021/acs.jced.8b00176)
± gives the expanded uncertainty stated by the source.

Experiments:
[1] = 100 kPa, Liquid; for viscosity: Falling or rolling sphere viscometry; for speed of sound: Frequency=3 MHz, Single path-length method; for mass density: Vibrating tube method
[2] = xn = mol fraction of the nth substance listed; settings: 100 kPa, Liquid; for viscosity: Falling or rolling sphere viscometry; for speed of sound: Frequency=3 MHz, Single path-length method; for mass density: Vibrating tube method

CN(C)C=O [dimethylformamide]
viscosity ([1]; 298.15 K): 0.81 ± 0.2 mPa·s
speed of sound ([1]; 298.15 K): 1457.1 ± 2.2 m/s
mass density ([1]; 298.15 K): 943.934 ± 2 kg/m3
viscosity ([1]; 303.15 K): 0.77 ± 0.2 mPa·s
speed of sound ([1]; 303.15 K): 1437.8 ± 2.2 m/s
mass density ([1]; 303.15 K): 939.162 ± 2 kg/m3
viscosity ([1]; 308.15 K): 0.72 ± 0.2 mPa·s
speed of sound ([1]; 308.15 K): 1418.5 ± 2.2 m/s
mass density ([1]; 308.15 K): 934.373 ± 2 kg/m3
viscosity ([1]; 313.15 K): 0.69 ± 0.2 mPa·s
speed of sound ([1]; 313.15 K): 1399.2 ± 2.2 m/s
mass density ([1]; 313.15 K): 929.577 ± 2 kg/m3
viscosity ([1]; 318.15 K): 0.65 ± 0.2 mPa·s
speed of sound ([1]; 318.15 K): 1379.9 ± 2.2 m/s
mass density ([1]; 318.15 K): 924.765 ± 2 kg/m3
viscosity ([1]; 323.15 K): 0.62 ± 0.2 mPa·s
speed of sound ([1]; 323.15 K): 1360.7 ± 2.2 m/s
mass density ([1]; 323.15 K): 919.95 ± 2 kg/m3

CN(C)C=O [dimethylformamide] + CC#N
viscosity ([2]; 298.15 K, x1 = 1): 0.81 ± 0.2 mPa·s
speed of sound ([2]; 298.15 K, x1 = 1): 1457.1 ± 2.2 m/s
mass density ([2]; 298.15 K, x1 = 1): 943.934 ± 2 kg/m3
viscosity ([2]; 303.15 K, x1 = 1): 0.77 ± 0.2 mPa·s
speed of sound ([2]; 303.15 K, x1 = 1): 1437.8 ± 2.2 m/s
mass density ([2]; 303.15 K, x1 = 1): 939.162 ± 2 kg/m3
viscosity ([2]; 308.15 K, x1 = 1): 0.72 ± 0.2 mPa·s
speed of sound ([2]; 308.15 K, x1 = 1): 1418.5 ± 2.2 m/s
mass density ([2]; 308.15 K, x1 = 1): 934.373 ± 2 kg/m3
viscosity ([2]; 313.15 K, x1 = 1): 0.69 ± 0.2 mPa·s
speed of sound ([2]; 313.15 K, x1 = 1): 1399.2 ± 2.2 m/s
mass density ([2]; 313.15 K, x1 = 1): 929.577 ± 2 kg/m3
viscosity ([2]; 318.15 K, x1 = 1): 0.65 ± 0.2 mPa·s
speed of sound ([2]; 318.15 K, x1 = 1): 1379.9 ± 2.2 m/s
mass density ([2]; 318.15 K, x1 = 1): 924.765 ± 2 kg/m3
viscosity ([2]; 323.15 K, x1 = 1): 0.62 ± 0.2 mPa·s
speed of sound ([2]; 323.15 K, x1 = 1): 1360.7 ± 2.2 m/s
mass density ([2]; 323.15 K, x1 = 1): 919.95 ± 2 kg/m3

CN(C)C=O [dimethylformamide] + CCCCn1cc[n+](C)c1.O=S(=O)([O-])C(F)(F)F
viscosity ([2]; 298.15 K, x2 = 0): 0.81 ± 0.2 mPa·s
speed of sound ([2]; 298.15 K, x2 = 0): 1457.1 ± 2.2 m/s
mass density ([2]; 298.15 K, x2 = 0): 943.934 ± 2 kg/m3
viscosity ([2]; 303.15 K, x2 = 0): 0.77 ± 0.2 mPa·s
speed of sound ([2]; 303.15 K, x2 = 0): 1437.8 ± 2.2 m/s
mass density ([2]; 303.15 K, x2 = 0): 939.162 ± 2 kg/m3
viscosity ([2]; 308.15 K, x2 = 0): 0.72 ± 0.2 mPa·s
speed of sound ([2]; 308.15 K, x2 = 0): 1418.5 ± 2.2 m/s
mass density ([2]; 308.15 K, x2 = 0): 934.373 ± 2 kg/m3
viscosity ([2]; 313.15 K, x2 = 0): 0.69 ± 0.2 mPa·s
speed of sound ([2]; 313.15 K, x2 = 0): 1399.2 ± 2.2 m/s
mass density ([2]; 313.15 K, x2 = 0): 929.577 ± 2 kg/m3
viscosity ([2]; 318.15 K, x2 = 0): 0.65 ± 0.2 mPa·s
speed of sound ([2]; 318.15 K, x2 = 0): 1379.9 ± 2.2 m/s
mass density ([2]; 318.15 K, x2 = 0): 924.765 ± 2 kg/m3
viscosity ([2]; 323.15 K, x2 = 0): 0.62 ± 0.2 mPa·s
speed of sound ([2]; 323.15 K, x2 = 0): 1360.7 ± 2.2 m/s
mass density ([2]; 323.15 K, x2 = 0): 919.95 ± 2 kg/m3
